# Source: ChEMBL document CHEMBL3507680, “University of Dundee, Gates Library screen for HepG2 cell viability”
# Assay: Human HepG2 cell viability assay in 384 well format
# Type: toxicity, cell-based
# Set-up: dose 125 nL, time 70.5 hour; cytotoxicity at 70.5 h: concentration not given beside the values
# Details: HepG2 cells, read-out: Inhibition
row,SMILES,cytotoxicity at 70.5 h
1,CC1CCN(CCNC(=O)c2ccn(-c3ccc(F)cc3)n2)CC1,-5.04%
2,Cc1csc(N2CCN(C(=O)Cc3cccs3)CC2)n1,-2.84%
3,CCOc1cc(F)ccc1NC(=O)N(C)Cc1cnn(C)c1,-5.78%
4,CCNC(=O)NCCCn1nc2ccccn2c1=O,-9.28%
5,Cc1ccn2ncc(C(=O)N3CCCC(n4ccnc4C)C3)c2n1 (configuration not stated),-2.96%
6,CC(Cn1cccn1)NCc1csc(-c2ncccn2)n1 (configuration not stated),3.56%
7,c1ccc(-c2noc(CCCN3CCCC3Cn3cccn3)n2)cc1 (configuration not stated),10.7%
8,CC(Cn1cccn1)NCc1csc(COc2ccccc2)n1 (configuration not stated),-2.25%
9,c1ccc(-c2nc(CN3CCCC(Cn4cncn4)C3)cs2)cc1 (configuration not stated),-6.56%
10,CC(O)CN1CCC(CNCc2cccc(C(F)(F)F)c2)CC1 (configuration not stated),2.27%
11,Cc1nnc(CN2CCCC(c3noc(C4CC4)n3)C2)o1 (configuration not stated),-4.3%
12,CN1CCCN(C(=O)NCCNc2ncccn2)CC1,17.7%
13,CC(C)(C)c1nc(CN2CCCC(c3noc(C4CC4)n3)C2)no1 (configuration not stated),-4.22%
14,c1csc(-c2noc(CCCN3CCCC3Cn3cncn3)n2)c1 (configuration not stated),2.46%
15,c1coc(-c2nc(CN3CCCC(Cn4cncn4)C3)cs2)c1 (configuration not stated),20.4%
16,Cc1cccc(OCC(=O)N2CCN(C3CCOC3=O)CC2)c1C (configuration not stated),-2.32%
17,CCCc1ccc(S(=O)(=O)NC(=O)CCC2CCCO2)cc1 (configuration not stated),3.11%
18,COc1ccc2cc(CNCc3c(C)nn(C)c3N(C)C)ccc2c1,23%
19,Cc1nc(-c2ccccc2)n(CC(=O)NC(C)(C)C)n1,1.44%
20,CCC(C)(C)NC(=O)Cn1nc(C)nc1-c1ccccc1,-0.158%
21,Cc1cccc(-c2nc(C)nn2CC(=O)NCC(C)C)c1,5.13%
22,O=C1COc2cc(C(=O)N3CCCC(n4cccn4)C3)ccc2N1 (configuration not stated),-1.96%
23,Cc1ccc(-c2nc(CN3CCCC(Cn4cncn4)C3)cs2)o1 (configuration not stated),6.82%
24,O=C(NCCOC1CCCCC1)c1ccc(-c2ccco2)[nH]c1=O,15.1%

row,SMILES,cytotoxicity at 70.5 h
1,Cc1csc(C2CCCN(C(=O)c3c[nH]c(C)n3)C2)n1 (configuration not stated),-1.13%
2,CCc1csc(C2CCCN(C(=O)c3cc(Cl)c[nH]3)C2)n1 (configuration not stated),2.15%
3,Cc1ccc(-c2nnc(CN3CCc4nn(C)c(=O)cc4C3)o2)cc1,3.35%
4,CCc1nc(C2CCCN2CCCc2nc3ccccc3o2)no1 (configuration not stated),-0.084%
5,O=C(NCC(F)(F)F)c1ccc(-c2ccco2)[nH]c1=O,-4.71%
6,COc1cc(C(=O)N2CCCC(c3cc(C)[nH]n3)C2)ccc1C (configuration not stated),19.1%
7,CCOCC(O)CN1CCN(C(=O)C(C)(C)CC)CC1 (configuration not stated),18.6%
8,COCc1ccccc1C(=O)N1CCCC(c2cc(C)[nH]n2)C1 (configuration not stated),26.2%
9,O=C(NCc1ccc(-n2cncn2)nc1)c1cc(Cl)c2c(c1)OCCO2,-3.48%
10,COc1ccc(CC(=O)Nc2cccnc2N2CCCC2)cc1OC,-1.14%
11,COc1ccc(CNC(=O)Nc2cccnc2OC)cc1O,22.7%
12,O=C(Cc1ccc2c(c1)OCCO2)NCc1ccc(-n2cncn2)nc1,-2.42%
13,Cc1ccccc1OCCC(=O)NC(C)c1nnc2n1CCCCC2 (configuration not stated),-2.91%
14,Cc1cnn(CC2CN(Cc3nc(C)no3)CCO2)c1 (configuration not stated),-1.3%
15,CCCN1CCN(CC(O)c2ccc(OC(F)(F)F)cc2)CC1 (configuration not stated),-0.084%
16,N#Cc1ccccc1OCCN1CCCC1Cn1cncn1 (configuration not stated),3.66%
17,COCCN1CCN(CC(O)c2ccc(OC(F)(F)F)cc2)CC1 (configuration not stated),-2.07%
18,Cc1nn(C)c(C)c1C1CCCN1CC(=O)NCc1ccco1 (configuration not stated),7.36%
19,CC(C)c1nc2n(n1)CC(NCc1ncc(C(C)(C)C)o1)CC2 (configuration not stated),0.95%
20,O=C(COCCc1ccccc1)N1CCCC(n2cncn2)C1 (configuration not stated),1.67%
21,COc1ccc(Cl)cc1C(=O)N1CCCC(c2cc(C)[nH]n2)C1 (configuration not stated),0.303%
22,c1cnnc(N2CCCC(NCc3cccc4c3OCCO4)C2)c1 (configuration not stated),6.38%
23,Cc1nn(C)c(C)c1NC(=O)CN1CCCC1c1c(C)nn(C)c1C (configuration not stated),-3.45%
24,OC(CN1CCCCCCC1)c1ccc(OC(F)(F)F)cc1 (configuration not stated),7.33%

row,SMILES,cytotoxicity at 70.5 h
1,Cc1ccc(N2CCCC(NCc3cccc4c3OCO4)C2)nn1 (configuration not stated),-0.527%
2,O=C(CCCOCc1ccccc1)N1CCCC(n2cncn2)C1 (configuration not stated),-1.64%
3,Fc1ccccc1OCCN1CCCCC1Cn1cncn1 (configuration not stated),2.55%
4,CN(Cc1ccccn1)C1CCCN(c2cccnn2)C1 (configuration not stated),3.01%
5,CCc1nccn1C1CCCN(C(=O)C2=NN(C)C(=O)CC2)C1 (configuration not stated),-8.58%
6,CC(C)Cc1noc(CN2CCCC2c2noc(C3CC3)n2)n1 (configuration not stated),-10.4%
7,Cc1nc(C)n(C2CCCN(C(=O)c3csc(CC(C)C)n3)C2)n1 (configuration not stated),-13.9%
8,COc1cccc(COCC(=O)N2CCCC(c3ccn[nH]3)C2)c1 (configuration not stated),20.5%
9,CCCc1noc(CN2CCCC2c2noc(C3CC3)n2)n1 (configuration not stated),-4.28%
10,COc1cc(C(=O)N2CCCC(CNS(C)(=O)=O)C2)ccc1C (configuration not stated),15.8%
11,CS(=O)(=O)NCC1CCCN(C(=O)c2ccc(F)c(F)c2)C1 (configuration not stated),-1.98%
12,Cc1ccc(C(=O)N2CCCC(CNS(C)(=O)=O)C2)o1 (configuration not stated),-7.3%
13,CCc1ccc(C(=O)N2CCCC(CNS(C)(=O)=O)C2)o1 (configuration not stated),-10.7%
14,CC(Cn1cccn1)NC(=O)N1CCN(Cc2ccncc2)CC1 (configuration not stated),-5.78%
15,CC(NCc1cccnc1)c1ccc(OCC(=O)NC2CC2)cc1 (configuration not stated),-8.83%
16,Cc1csc(N2CCCN(Cc3noc(C)n3)CC2)n1,-1.5%
17,CCn1ncc2c1CCCC2NCc1cccc2c1OCCO2 (configuration not stated),-13.8%
18,Cc1nc(CN2CCCN(C(=O)C(C)OCC3CC3)CC2)cs1 (configuration not stated),-8.36%
19,CC(=O)Nc1nc(C(=O)NCc2ccc(N3CCCCCC3)nc2)cs1,7.57%
20,Cc1ccc(-c2nc(CN3CCN(S(=O)(=O)N(C)C)CC3)cs2)o1,1.51%
21,CCNC(=O)C1CCN(Cc2csc(-c3ccc(C)o3)n2)CC1,0.934%
22,CCn1cnnc1CNC(=O)c1ccc(Cl)cc1F,-4.7%
23,CC(NC(=O)NCCCN(C)S(C)(=O)=O)c1cccc(Cl)c1 (configuration not stated),-7.23%
24,CC(NC(=O)NCCCN(C)S(C)(=O)=O)c1ccncc1 (configuration not stated),-3.33%

row,SMILES,cytotoxicity at 70.5 h
1,CC(=O)c1cccc(S(=O)(=O)N2CSCC2C(=O)NCC(F)(F)F)c1 (configuration not stated),5.48%
2,O=C(NCC(F)(F)F)C1CSCN1S(=O)(=O)c1ccc(F)cc1 (configuration not stated),-4.65%
3,O=C(Cc1csc(-c2ccco2)n1)N1CCN(c2cnccn2)CC1,1.22%
4,CC(=O)Nc1nc(C(=O)Nc2ccc(N3CCCCC3)nc2)cs1,13.7%
5,COC(=O)C(c1cc(F)ccc1F)N(C)C(=O)c1ccnc(C)n1 (configuration not stated),1.49%
6,c1ccc(Cn2ccnc2CN2CCOC(Cn3cccn3)C2)cc1 (configuration not stated),2.05%
7,Cn1cc(C(=O)NCC2CCN(C(=O)NCC(F)(F)F)CC2)cn1,2.26%
8,COCCc1noc(CN2CCN(CC(O)c3ccccc3)CC2)n1 (configuration not stated),-6.23%
9,CCCc1nc(CN2CCN(CC(O)c3ccccc3)CC2)no1 (configuration not stated),-0.214%
10,Cn1cc(C(=O)NC2CCN(C(=O)NCC3CCSCC3)CC2)cn1,-3.27%
11,O=C(CCc1ccc(Br)cc1F)NS(=O)(=O)c1ccc2c(c1)OCCO2,-3.13%
12,Cc1cc(CN(Cc2cccs2)CC2CCCO2)no1 (configuration not stated),-0.996%
13,CCCc1n[nH]c(C2CN(CCCOc3ccccc3)CCO2)n1 (configuration not stated),-6.69%
14,COCc1nc(C(=O)N2CCCC2c2c(C)nn(C)c2C)cs1 (configuration not stated),-6.67%
15,Cc1cc(C)n(CC2CCCN2C(=O)c2ccc3c(c2)OCO3)n1 (configuration not stated),6.92%
16,COc1ccc(OCCNCCn2cccn2)cc1,3.51%
17,O=C(Cc1csc(-c2ccco2)n1)N1CCN(CCO)CC1,5.35%
18,Cc1cc(C)n(C2CCCN(C(=O)CCNS(C)(=O)=O)C2)n1 (configuration not stated),14.9%
19,Cc1ccc(NC2CCN(C(=O)COc3cccnc3)CC2)nn1,22%
20,CCc1nc(CN2CCN(C(=O)CCc3ccccc3)CC2)cs1,3%
21,c1cc(CNCC2CNc3ccnn3C2)cc(N2CCCCC2)n1 (configuration not stated),25.3%
22,c1ccc(Oc2cc(CNCC3CNc4ccnn4C3)ccn2)cc1 (configuration not stated),-2.96%
23,CCOc1cc(/C=C/c2ncc(C(=O)O)s2)cc(Cl)c1OC,9.41%
24,CCOc1ncccc1C(=O)NCCN(CC)C1CC1,0.543%

row,SMILES,cytotoxicity at 70.5 h
1,O=C(NCc1cccc2cccnc12)N1CCC(n2cncn2)CC1,-1.7%
2,CCc1nccn1C1CCCN(C(=O)CCCNc2ncccn2)C1 (configuration not stated),-1.35%
3,O=C(c1ccn[nH]1)N1CCCC(n2cncn2)C1 (configuration not stated),5.61%
4,COCCCNC(=O)CN1CCCC1c1c(C)nn(C)c1Cl (configuration not stated),27.1%
5,O=C(c1cnc(-c2ccco2)s1)N1CCCC1Cn1cccn1 (configuration not stated),1.15%
6,CC1CCN(S(=O)(=O)NCCCn2cncn2)CC1,-0.69%
7,Cc1nc(C)n(CC2CCCN(CCCOc3ccccc3)C2)n1 (configuration not stated),-0.0538%
8,Cn1cc(C(=O)CC2CCCN2C(=O)c2cncc3ccccc23)cn1 (configuration not stated),3.04%
9,Cc1nc(-c2ccco2)ccc1C(=O)N1CCCC1Cn1cccn1 (configuration not stated),7.82%
10,COc1ccc(CCN2CCCC(Cn3nc(C)nc3C)C2)cc1 (configuration not stated),-2.31%
11,CC(O)CN1CCN(C(=O)c2ccc(Cn3cccc3)cc2)CC1 (configuration not stated),-2.78%
12,CCn1cnnc1CNC(=O)N(C)Cc1ccc2c(c1)OCCO2,6.83%
13,Cc1nc(C)n(CC2CCCN(Cc3nc(C)c(C)o3)C2)n1 (configuration not stated),13.2%
14,CCC1CN(CCC(=O)N(C)C)CCN1CCOC (configuration not stated),-8.66%
15,CCC1CN(CC(=O)N2CCC2)CCN1CCOC (configuration not stated),-2.85%
16,Cc1nc(C)n(CC2CCCN(c3ncnc4ccsc34)C2)n1 (configuration not stated),26.2%
17,CCn1cnnc1CNC(=O)CCC(=O)c1ccc2c(c1)OCCO2,-9.39%
18,Cc1ccc(C(=O)N2CCCC(NC(=O)C(C)C)C2)c(O)c1 (configuration not stated),-3.17%
19,Cc1ccc(C(=O)N2CCCC(C(=O)N3CCCCC3)C2)c(O)c1 (configuration not stated),13.3%
20,Cc1cccc(CNC2CCCc3c2cnn3Cc2ccccc2)c1 (configuration not stated),-7.85%
21,Cc1nn(C)c(C)c1CNCc1ccc(N2CCOCC2)nc1,3.85%
